# Experimental data from ChEMBL document CHEMBL1201862, “PubChem BioAssay data set” (2004).
# Active and inactive are the calls of the source.
# Key:
# [1] = molecular target: Guanyl-specific ribonuclease T1 (Aspergillus oryzae (strain ATCC 42149 / RIB 40), UniProt P00651); assay: RNase T1 inhibitors, dose response, counter-screen for TPT1 inhibitor project, biochemical, fluorescence polarization, 1536-well (AID 2167)
# [2] = molecular target: Likely tRNA 2'-phosphotransferase (Candida albicans (strain SC5314 / ATCC MYA-2876) (Yeast), UniProt Q5A7N4); assay: TPT1 tRNA phosphotransferase inhibitors, dose response, biochemical, fluorescence polarization (AID 2160)
# Bcl-2-like protein 10 = Bcl-2-like protein 10 (Homo sapiens, UniProt Q9HD36); assay: displacers of TR3 peptide from Bcl-B, primary screen, selectivity assay for Bfl-1 inhibitor project, biochemical, fluorescence polarization, FITC-TR3 peptide (AID 748);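 note: fluorescence polarization from a fluorescein-labelled TR3 peptide binding purified Bcl-B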
# [3] = molecular target: T1, Heat shock factor protein 1 (Mus musculus, UniProt P38532); assay: inhibition of MG132-induced HSE-luciferase signal, confirmation, cell-based, NIH3T3, luminescence, dose retest (AID 2382); assay type: functional;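 note: NIH3T3 fibroblasts with HSF1-driven luciferase reporter stressed by proteasome inhibitor MG132; luminescence from HSF1-driven luciferase expression after 8 hours of MG132 stress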
# T1 sequence (P38532 whole entry): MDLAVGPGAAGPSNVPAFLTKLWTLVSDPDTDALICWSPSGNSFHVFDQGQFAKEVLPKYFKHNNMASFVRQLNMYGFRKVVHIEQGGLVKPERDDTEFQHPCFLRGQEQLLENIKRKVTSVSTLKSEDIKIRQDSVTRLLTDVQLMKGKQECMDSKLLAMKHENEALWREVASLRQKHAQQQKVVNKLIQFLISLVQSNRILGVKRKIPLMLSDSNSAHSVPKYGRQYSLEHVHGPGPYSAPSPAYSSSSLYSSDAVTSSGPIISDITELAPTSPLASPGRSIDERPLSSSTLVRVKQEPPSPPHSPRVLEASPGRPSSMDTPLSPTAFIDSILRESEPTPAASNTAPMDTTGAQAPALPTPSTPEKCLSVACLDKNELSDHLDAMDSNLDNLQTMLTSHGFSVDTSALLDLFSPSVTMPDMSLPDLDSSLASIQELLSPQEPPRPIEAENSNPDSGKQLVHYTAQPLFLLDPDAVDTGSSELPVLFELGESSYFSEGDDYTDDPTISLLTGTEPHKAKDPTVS
# [4] = molecular target: Lysosomal acid glucosylceramidase (Homo sapiens, UniProt P04062); assay: Dose response cell-based high throughput screening assay to identify enhancers of beta-glucosidase activity. [Related pubchem assays: 784 ]; assay type: functional
# [5] = NIH-3T3 fibroblast cytotoxicity, dose response, cytotoxicity control, cell-based, fluorescence, Alamar Blue, secondary assay (AID 2327); assay type: functional;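 note: NIH-3T3 mouse fibroblasts cultured with fluconazole at 8 µg/mL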
# [6] = molecular target: Transitional endoplasmic reticulum ATPase (Homo sapiens, UniProt P55072, C522A); assay: C522A mutant p97 ATPase inhibitors, dose response, counter-screen for p97 inhibitor project, biochemical, luminescence (AID 1544)
# [7] = C. albicans growth with fluconazole, confirmation, fluorescence, retest (AID 2467); assay type: functional, cell-based
# [8] = molecular target: Transitional endoplasmic reticulum ATPase (Homo sapiens, UniProt P55072); assay: p97 ATPase inhibitors, dose response, biochemical (AID 1534)
# Trypsin = Trypsin (Sus scrofa, UniProt P00761); assay: porcine trypsin inhibitors, dose response, selectivity assay for Rce1 protease inhibitor project, biochemical, quenched peptide fluorescence, cherry-pick (AID 488789)
# Bcl-2-related protein A1 = molecular target: T2, Bcl-2-related protein A1 (Mus musculus, UniProt Q07440); assay type: functional;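 note: confirmatory dose–response counterscreen on Bfl-1, used to check hits from a UBC13 polyubiquitin inhibitor campaign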
# T2 sequence (Q07440 whole entry): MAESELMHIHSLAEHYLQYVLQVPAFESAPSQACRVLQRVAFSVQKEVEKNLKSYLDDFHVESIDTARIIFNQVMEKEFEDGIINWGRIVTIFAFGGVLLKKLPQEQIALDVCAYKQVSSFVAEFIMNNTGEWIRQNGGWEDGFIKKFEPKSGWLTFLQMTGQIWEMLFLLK
# [9] = molecular target: T3, Ubiquitin-conjugating enzyme E2 N (Homo sapiens, UniProt P61088); assay type: functional
# T3 sequence (P61088 whole entry): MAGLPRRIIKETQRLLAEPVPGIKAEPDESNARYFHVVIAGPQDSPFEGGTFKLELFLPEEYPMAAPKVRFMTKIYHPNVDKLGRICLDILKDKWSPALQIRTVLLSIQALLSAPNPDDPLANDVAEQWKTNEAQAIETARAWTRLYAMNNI
# CAAX prenyl protease 2 [10] = molecular target: T4, CAAX prenyl protease 2 (Saccharomyces cerevisiae S288c, UniProt Q03530); assay type: biochemical
# T4 sequence (Q03530 whole entry): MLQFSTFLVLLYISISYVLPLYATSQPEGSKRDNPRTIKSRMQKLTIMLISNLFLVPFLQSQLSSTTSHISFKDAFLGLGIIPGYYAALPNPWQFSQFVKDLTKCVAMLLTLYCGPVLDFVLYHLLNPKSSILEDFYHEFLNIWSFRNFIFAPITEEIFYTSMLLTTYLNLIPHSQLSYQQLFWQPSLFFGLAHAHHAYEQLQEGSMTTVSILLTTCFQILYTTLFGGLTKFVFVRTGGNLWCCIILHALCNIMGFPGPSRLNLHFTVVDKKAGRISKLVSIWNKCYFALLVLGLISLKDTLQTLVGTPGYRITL
# [11] = molecular target: T3, Ubiquitin-conjugating enzyme E2 N; assay type: functional; remark: listed apart in the source
# [12] = molecular target: T5, Replicative DNA helicase DnaB (Mycobacterium tuberculosis, UniProt P9WMR3); assay: DnaB intein splicing inhibitors, dose response, biochemical, cell-free fluorescence (AID 449749); assay type: functional
# T5 sequence (P9WMR3 whole entry): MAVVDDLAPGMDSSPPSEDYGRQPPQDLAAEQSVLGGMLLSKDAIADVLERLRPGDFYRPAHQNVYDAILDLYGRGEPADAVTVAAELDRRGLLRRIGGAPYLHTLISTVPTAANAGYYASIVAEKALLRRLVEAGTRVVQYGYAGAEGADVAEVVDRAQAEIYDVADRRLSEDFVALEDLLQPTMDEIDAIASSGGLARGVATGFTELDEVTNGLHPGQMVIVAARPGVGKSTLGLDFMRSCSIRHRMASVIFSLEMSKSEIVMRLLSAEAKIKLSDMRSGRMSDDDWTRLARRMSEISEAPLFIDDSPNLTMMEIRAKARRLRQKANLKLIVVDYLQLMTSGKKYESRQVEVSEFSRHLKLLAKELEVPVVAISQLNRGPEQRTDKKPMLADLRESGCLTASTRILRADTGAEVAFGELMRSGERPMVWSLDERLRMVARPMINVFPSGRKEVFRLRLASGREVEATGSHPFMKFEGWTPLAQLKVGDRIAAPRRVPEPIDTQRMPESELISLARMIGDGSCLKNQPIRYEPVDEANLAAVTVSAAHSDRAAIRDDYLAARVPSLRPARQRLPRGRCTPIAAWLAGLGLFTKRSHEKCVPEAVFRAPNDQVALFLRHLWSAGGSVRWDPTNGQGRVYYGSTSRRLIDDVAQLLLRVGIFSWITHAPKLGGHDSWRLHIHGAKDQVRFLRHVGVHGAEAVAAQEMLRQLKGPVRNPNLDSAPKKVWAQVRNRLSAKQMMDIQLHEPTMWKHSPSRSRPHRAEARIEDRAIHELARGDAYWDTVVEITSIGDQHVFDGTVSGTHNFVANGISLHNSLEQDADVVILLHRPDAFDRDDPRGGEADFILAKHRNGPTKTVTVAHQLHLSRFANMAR
# Protein RecA = molecular target: T6, Protein RecA (Mycobacterium tuberculosis, UniProt P9WHJ3); assay: Fluorescence Cell-Free Homogeneous Dose Retest to Identify Inhibitors of RecA-Intein Splicing Activity. [Related pubchem assays (depositor defined):AID2097, AID2223, AID489010, AID492950]; assay type: functional
# T6 sequence (P9WHJ3 whole entry): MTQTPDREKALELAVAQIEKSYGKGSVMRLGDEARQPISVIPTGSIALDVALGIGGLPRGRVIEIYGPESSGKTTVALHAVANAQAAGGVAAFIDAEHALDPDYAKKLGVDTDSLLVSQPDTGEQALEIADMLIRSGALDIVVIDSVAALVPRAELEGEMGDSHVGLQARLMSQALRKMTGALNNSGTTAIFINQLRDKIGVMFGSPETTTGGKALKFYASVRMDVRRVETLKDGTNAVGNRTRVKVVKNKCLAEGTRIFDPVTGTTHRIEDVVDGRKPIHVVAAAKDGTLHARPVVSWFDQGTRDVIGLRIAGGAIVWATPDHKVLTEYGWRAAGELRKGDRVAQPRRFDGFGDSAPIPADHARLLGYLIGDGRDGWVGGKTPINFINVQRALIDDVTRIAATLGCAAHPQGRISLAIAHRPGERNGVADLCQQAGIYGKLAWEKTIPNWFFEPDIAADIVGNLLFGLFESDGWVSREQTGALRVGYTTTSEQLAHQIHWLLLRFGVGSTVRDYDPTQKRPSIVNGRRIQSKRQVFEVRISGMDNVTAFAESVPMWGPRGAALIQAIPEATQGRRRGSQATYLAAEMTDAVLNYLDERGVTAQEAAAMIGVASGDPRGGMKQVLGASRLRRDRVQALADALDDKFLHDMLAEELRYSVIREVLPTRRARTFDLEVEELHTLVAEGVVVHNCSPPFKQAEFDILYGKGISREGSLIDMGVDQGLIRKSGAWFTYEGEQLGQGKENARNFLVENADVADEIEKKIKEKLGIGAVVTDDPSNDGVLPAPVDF
# INS1 = assay: beta cell apoptosis inhibitors, cytokine rescue, dose response, luminescence, retest (AID 449756); assay type: functional, cell-based; conditions: Rattus norvegicus;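 note: cell death triggered by IL-1 beta plus TNF-alpha plus IFN-gamma mixture; protective hits raise ATP signal compared with cytokine alone wells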
# CAAX prenyl protease 2 [13] = molecular target: T7, CAAX prenyl protease 2 (Homo sapiens, UniProt Q9Y256); assay: human Rce1 protease inhibitors, dose response, biochemical, yeast membranes, quenched-peptide fluorescence, cherry-pick (AID 588849)
# T7 sequence (Q9Y256 whole entry): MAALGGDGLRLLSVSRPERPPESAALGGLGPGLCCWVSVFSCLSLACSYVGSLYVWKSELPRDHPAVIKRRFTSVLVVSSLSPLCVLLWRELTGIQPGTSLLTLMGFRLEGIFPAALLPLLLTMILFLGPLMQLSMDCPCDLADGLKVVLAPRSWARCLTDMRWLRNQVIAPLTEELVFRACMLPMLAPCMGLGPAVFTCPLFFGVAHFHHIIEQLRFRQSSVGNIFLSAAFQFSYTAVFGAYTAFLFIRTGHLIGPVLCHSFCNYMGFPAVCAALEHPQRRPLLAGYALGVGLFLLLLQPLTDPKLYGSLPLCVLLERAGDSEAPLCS
# [14] = molecular target: Cyclin-dependent kinase 5/CDK5 activator 1 (Homo sapiens, UniProt Q00535); assay: CDK5/p35 kinase inhibitors, dose response, biochemical, cherry-picked samples, set 2 (AID 504545)
# [15] = molecular target: Voltage-gated N-type calcium channel alpha-1B subunit/Amyloid beta A4 precursor protein-binding family A member 1 (Homo sapiens, UniProt Q00975+Q02410); assay: disruptors of Mint-PDZ/N-type channel peptide interaction – biochemical, HTRF, set 2, SAR follow-up (AID 434980); assay type: functional
# [16] = blockers of SFLLRN-triggered platelet ATP secretion – cell-based, human platelets, luminescence, dry powder, dose response (AID 493100); assay type: functional
# [17] = HEp-2 cell cytotoxicity, dose response, cytotoxicity control for RSV inhibitor project, HTS (AID 2410); assay type: functional; conditions: human respiratory syncytial virus
# [18] = molecular target: G-protein coupled receptor 35 (Homo sapiens, UniProt Q9HC97); assay: GPR35 antagonists blocking zaprinast-driven arrestin recruitment, primary screen, imaging, U2OS, beta-arrestin-GFP, zaprinast agonist (AID 2058); assay type: functional;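 note: antagonist potency meaning inhibition of agonist-induced arrestin redistribution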
# [19] = test system: Streptococcus sp. 'group A'; assay: growth inhibition of control SK(-) GAS strain, dose response, counter-screen for streptokinase expression inhibitor project, luminescence, kanamycin, BacTiterGlo, confirmation (AID 1900); assay type: functional, organism-based
# Streptokinase A = molecular target: T8, Streptokinase A (Streptococcus pyogenes serotype M1, UniProt P10520); assay: S. pyogenes streptokinase expression inhibitors, potency, dose response, plasminogen activation absorbance, OD405 (AID 1914); assay type: functional, Streptococcus pyogenes M1 GAS;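 note: secreted streptokinase activity via plasminogen activation per viability signal from cell pellet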
# T8 sequence (P10520 whole entry): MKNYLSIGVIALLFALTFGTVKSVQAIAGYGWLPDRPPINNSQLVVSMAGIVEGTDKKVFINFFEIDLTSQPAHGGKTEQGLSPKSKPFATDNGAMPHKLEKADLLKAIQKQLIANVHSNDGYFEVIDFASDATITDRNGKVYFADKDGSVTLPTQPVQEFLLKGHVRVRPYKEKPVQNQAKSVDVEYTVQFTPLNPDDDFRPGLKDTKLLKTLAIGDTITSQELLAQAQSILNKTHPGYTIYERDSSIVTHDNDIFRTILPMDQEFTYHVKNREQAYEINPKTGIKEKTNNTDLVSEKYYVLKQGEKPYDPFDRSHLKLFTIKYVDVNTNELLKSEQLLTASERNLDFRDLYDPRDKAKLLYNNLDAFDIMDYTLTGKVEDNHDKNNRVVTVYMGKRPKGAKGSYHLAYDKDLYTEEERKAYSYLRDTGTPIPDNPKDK
# Streptococcus = assay: Group A Streptococcus viability loss, dose response, counter-screen for streptokinase expression inhibitor project, luminescence, BacTiterGlo (AID 1915); assay type: functional, organism-based;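 note: potency for reduction of bacterial viability or growth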
# Bcl-2-like protein 10, sequence (Q9HD36 whole entry): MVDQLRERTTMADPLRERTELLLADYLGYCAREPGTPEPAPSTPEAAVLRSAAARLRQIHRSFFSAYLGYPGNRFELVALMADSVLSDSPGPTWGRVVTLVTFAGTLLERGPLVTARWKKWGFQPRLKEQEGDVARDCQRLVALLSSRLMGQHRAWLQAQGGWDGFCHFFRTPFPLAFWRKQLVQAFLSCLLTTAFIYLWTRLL
# G-protein coupled receptor 35, sequence (Q9HC97 whole entry): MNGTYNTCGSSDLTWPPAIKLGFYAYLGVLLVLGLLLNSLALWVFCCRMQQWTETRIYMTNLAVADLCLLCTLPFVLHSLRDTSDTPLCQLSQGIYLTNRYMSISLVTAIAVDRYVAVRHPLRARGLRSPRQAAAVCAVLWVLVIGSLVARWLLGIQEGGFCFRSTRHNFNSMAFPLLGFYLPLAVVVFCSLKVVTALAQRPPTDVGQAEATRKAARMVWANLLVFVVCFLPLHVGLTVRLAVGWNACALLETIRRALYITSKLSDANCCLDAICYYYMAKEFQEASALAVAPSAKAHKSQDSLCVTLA
# Transitional endoplasmic reticulum ATPase (Homo sapiens, UniProt P55072, C522A), sequence (P55072 2-806 C522A limits assumed): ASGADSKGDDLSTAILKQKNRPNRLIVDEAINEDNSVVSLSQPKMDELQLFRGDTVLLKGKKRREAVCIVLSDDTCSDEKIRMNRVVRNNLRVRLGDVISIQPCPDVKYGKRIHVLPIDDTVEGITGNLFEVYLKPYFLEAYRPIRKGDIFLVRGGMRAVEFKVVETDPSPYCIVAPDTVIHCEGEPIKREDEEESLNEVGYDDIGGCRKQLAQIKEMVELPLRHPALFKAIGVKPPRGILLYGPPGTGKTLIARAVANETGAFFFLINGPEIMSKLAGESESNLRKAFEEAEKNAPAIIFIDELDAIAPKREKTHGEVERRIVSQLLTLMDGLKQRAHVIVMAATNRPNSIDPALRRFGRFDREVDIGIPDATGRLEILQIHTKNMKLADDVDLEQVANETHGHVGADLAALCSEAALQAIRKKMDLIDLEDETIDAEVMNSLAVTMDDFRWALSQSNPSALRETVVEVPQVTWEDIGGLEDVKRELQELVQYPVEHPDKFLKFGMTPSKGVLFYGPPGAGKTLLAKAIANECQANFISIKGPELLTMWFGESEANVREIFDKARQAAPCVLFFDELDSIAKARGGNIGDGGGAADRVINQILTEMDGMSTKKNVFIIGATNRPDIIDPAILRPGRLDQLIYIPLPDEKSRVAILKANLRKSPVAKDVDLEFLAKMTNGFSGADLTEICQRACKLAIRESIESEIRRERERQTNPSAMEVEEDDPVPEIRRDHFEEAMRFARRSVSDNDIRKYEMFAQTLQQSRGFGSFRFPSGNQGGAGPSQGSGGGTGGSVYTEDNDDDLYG
# Voltage-gated N-type calcium channel alpha-1B subunit/Amyloid beta A4 precursor protein-binding family A member 1, sequence (Q00975 whole entry): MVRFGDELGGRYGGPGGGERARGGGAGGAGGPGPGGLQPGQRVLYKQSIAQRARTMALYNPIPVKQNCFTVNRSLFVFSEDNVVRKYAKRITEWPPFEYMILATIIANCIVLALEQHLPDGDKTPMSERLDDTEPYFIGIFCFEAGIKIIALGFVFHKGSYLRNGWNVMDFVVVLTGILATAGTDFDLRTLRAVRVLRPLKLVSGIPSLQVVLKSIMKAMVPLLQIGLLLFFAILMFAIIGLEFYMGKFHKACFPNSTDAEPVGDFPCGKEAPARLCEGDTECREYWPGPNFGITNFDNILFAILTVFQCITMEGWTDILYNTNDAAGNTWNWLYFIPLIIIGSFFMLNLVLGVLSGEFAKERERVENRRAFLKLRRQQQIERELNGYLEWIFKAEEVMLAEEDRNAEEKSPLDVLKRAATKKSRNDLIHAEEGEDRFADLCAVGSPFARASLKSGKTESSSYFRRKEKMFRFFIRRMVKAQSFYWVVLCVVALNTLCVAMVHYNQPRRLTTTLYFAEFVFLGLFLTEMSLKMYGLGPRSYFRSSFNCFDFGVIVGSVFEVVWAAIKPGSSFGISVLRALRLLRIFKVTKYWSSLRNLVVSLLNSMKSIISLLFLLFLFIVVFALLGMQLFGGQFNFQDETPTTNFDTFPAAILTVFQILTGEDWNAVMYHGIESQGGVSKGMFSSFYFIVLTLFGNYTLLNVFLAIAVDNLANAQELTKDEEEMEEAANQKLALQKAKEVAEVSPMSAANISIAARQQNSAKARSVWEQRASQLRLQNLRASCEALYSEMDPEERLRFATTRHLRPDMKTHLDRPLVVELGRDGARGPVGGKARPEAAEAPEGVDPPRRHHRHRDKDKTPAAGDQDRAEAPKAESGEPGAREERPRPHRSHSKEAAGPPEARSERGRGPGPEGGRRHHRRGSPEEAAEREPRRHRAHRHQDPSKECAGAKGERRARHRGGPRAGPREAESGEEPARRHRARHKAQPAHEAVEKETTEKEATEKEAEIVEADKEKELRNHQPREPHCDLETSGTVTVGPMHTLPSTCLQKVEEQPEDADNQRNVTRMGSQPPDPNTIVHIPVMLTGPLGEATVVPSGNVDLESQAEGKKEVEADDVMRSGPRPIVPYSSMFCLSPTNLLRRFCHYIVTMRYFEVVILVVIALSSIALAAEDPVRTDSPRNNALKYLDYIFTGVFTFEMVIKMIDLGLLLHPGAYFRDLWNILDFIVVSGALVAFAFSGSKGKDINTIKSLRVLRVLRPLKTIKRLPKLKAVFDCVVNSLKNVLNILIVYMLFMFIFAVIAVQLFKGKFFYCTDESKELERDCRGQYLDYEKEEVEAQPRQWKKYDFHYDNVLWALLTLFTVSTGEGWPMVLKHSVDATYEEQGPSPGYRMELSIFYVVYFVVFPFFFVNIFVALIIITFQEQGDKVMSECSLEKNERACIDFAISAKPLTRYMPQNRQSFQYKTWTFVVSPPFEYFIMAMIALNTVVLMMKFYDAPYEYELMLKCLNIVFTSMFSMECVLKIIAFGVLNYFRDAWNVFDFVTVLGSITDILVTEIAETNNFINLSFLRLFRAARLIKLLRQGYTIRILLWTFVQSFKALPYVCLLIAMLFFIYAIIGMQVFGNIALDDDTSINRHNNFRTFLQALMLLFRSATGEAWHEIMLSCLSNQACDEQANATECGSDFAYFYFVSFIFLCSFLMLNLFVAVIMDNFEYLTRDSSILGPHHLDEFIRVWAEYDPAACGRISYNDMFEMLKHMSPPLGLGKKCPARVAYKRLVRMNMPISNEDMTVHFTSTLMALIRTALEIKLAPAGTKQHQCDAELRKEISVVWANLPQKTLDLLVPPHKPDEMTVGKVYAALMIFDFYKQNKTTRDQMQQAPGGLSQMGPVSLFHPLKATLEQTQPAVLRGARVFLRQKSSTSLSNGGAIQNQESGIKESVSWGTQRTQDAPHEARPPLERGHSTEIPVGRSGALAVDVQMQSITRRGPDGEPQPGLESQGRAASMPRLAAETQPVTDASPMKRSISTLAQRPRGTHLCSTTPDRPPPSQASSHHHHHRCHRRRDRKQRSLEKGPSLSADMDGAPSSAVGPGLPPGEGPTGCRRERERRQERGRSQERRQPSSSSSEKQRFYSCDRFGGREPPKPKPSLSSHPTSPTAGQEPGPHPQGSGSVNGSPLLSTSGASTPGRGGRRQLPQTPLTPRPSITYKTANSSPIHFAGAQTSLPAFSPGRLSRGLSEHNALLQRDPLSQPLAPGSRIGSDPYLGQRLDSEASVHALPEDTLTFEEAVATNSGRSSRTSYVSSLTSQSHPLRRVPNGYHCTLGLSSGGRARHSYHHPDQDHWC
# Voltage-gated N-type calcium channel alpha-1B subunit/Amyloid beta A4 precursor protein-binding family A member 1, sequence (Q02410 whole entry): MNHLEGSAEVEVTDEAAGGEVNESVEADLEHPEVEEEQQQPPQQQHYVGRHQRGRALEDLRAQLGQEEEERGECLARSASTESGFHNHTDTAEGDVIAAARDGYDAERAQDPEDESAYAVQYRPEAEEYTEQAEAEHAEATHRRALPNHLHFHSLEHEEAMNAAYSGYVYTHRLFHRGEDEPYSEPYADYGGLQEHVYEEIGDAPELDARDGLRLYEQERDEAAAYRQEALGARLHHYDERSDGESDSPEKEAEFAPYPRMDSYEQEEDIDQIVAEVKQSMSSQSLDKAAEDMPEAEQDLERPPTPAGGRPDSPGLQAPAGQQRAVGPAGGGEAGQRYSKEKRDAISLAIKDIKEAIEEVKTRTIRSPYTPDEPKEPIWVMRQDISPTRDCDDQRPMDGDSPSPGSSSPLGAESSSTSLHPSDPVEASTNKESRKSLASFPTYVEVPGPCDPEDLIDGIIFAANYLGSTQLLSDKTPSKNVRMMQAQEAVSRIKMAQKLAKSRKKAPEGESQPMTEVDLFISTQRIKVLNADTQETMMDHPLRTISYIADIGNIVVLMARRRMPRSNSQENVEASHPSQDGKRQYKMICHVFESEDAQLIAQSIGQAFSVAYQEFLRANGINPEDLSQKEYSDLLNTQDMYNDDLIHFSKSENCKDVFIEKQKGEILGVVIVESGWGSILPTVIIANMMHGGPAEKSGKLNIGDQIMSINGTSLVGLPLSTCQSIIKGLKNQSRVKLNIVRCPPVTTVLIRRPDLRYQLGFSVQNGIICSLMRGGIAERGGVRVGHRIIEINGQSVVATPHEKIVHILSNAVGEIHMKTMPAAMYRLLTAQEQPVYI
# Trypsin, sequence (P00761 whole entry): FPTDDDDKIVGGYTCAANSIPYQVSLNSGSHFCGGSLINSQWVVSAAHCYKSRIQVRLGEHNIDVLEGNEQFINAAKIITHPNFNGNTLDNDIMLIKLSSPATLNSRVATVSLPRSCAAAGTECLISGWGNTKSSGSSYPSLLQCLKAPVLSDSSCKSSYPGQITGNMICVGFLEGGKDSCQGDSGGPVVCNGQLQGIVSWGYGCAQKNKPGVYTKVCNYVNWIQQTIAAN
# Likely tRNA 2'-phosphotransferase, sequence (Q5A7N4 whole entry): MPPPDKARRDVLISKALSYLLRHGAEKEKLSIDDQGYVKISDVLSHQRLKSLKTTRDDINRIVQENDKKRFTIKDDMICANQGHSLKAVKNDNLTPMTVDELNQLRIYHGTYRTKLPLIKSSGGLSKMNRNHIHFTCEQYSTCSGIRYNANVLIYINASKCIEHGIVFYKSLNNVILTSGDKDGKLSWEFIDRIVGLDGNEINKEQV
structure (smiles),measurement,setting,value
Cc1ccc(OCCn2cccc2/C=C2/C(=O)NC(=O)N(Cc3ccco3)C2=O)cc1,IC50,[1],> 55.7 µM (not active)
same,IC50,[2],> 55.7 µM (not active)
COc1ccc(NC(=O)c2cc(CN3C(=O)c4ccccc4C3=O)ccc2OC)cn1,IC50,Bcl-2-like protein 10,> 25 µM (inactive)
same,EC50,[3],> 195 µM (not active)
COc1ccc(OC)c(Nc2nc(-c3sc(N)nc3C)cs2)c1,EC50,[4],> 50 µM (not active)
c1ccc(CNc2nc(NCc3ccccc3)c3ccccc3n2)cc1,EC50,[5],> 150 µM (inconclusive)
same,IC50,[6],> 50 µM (not active)
same,EC50,[7],> 38 µM (not active)
same,IC50,[8],> 50 µM (not active)
same,AC50,Trypsin,13.6 µM (active)
same,IC50,Bcl-2-related protein A1,12.4 µM (active)
same,IC50,[9],19.6 µM (active)
same,AC50,CAAX prenyl protease 2 [10],39.5 µM (active)
same,IC50,[11],11 µM (active)
same,AC50,[12],6.13 µM (active)
same,EC50,Protein RecA,7.83 µM (active)
same,AC50,INS1,7.6 µM (active)
same,AC50,CAAX prenyl protease 2 [13],9.69 µM (active)
C=CCNC(=O)c1[nH]nc2c1CC(C(C)(C)CC)CC2 (stereo unspecified),AC50,[14],3.18 µM (active)
O=C(c1cc(-c2ccco2)nc2ccccc12)N1CCc2cccnc21,IC50,[15],> 56.8 µM (inactive)
O=C(N/N=C/c1ccc(NC(=O)C(F)(F)F)cc1)C1CCCC1,AC50,[16],22.3 µM (active)
CCOc1ccc(/C=N/NC(=O)Cc2csc(Nc3cccc(C(F)(F)F)c3)n2)cc1,CC50,[17],12.2 µM (active)
same,IC50,[18],2.1 µM (active)
same,EC50,[19],8.02 µM (active)
same,EC50,Streptokinase A,20.1 µM (active)
same,EC50,Streptococcus,20.2 µM (active)
